This passage reports MIC results from patent US5371090A, “Naphthyridonecarboxylic acid derivatives” (Bayer Aktiengesellschaft, priority 1991, dated 1994).

Holding throughout (assay): MIC on Iso-Sensitest agar, serial dilution
Type in all cases: cell-based

The subject of one assay is Pseudomonas aeruginosa. The procedure: (§1) The minimum inhibitory concentrations (MICs) were determined on Iso-Sensitest agar (Oxoid) using serial dilution methods. For each test substance a series of agar plates was prepared which contained concentrations of the active substance which decreased as the dilution factor was doubled. The agar plates were inoculated by means of a multipoint inoculator (Denley). The inocula used were overnight cultures of the pathogens which had previously been diluted to such an extent that each inoculation point contained approx. 10^4 colony-forming units. The inoculated agar plates were incubated at 37° C., and the growth of the germs was read off after approx. 20 hours. The MIC value (μg/ml) indicates the lowest concentration of active compound at which no growth could be observed with the naked eye.

The test system of a further assay is Staphylococcus aureus. Particulars: 37° C., approx. 20 hours. The protocol:
as §1

Another assay deals with Enterococcus faecalis. The procedure: as §1, with “hours.” for “hours. The MIC value (μg/ml) indicates the lowest concentration of active compound at which no growth could be observed with the naked eye.”
The next assay concerns E. coli. To be noted: Escherichia coli, 20 h, 37° C., approx. 20 hours. The protocol: as §1, with “hours.” for “hours. The MIC value (μg/ml) indicates the lowest concentration of active compound at which no growth could be observed with the naked eye.”
A further assay relates to Klebsiella sp. The protocol: as §1, with “hours.” for “hours. The MIC value (μg/ml) indicates the lowest concentration of active compound at which no growth could be observed with the naked eye.”
For another assay, the system named is Providencia spp. The procedure:
as §1, with “hours.” for “hours. The MIC value (μg/ml) indicates the lowest concentration of active compound at which no growth could be observed with the naked eye.”

The test system of another assay is Morganella morg. The procedure: as §1, with “hours.” for “hours. The MIC value (μg/ml) indicates the lowest concentration of active compound at which no growth could be observed with the naked eye.”
The mark [1] stands for this setting: Pseudomonas aeruginosa strain Walter, 37° C., approx. 20 hours, read-out: MIC.
The mark [2] stands for this setting: Staphylococcus aureus strain 133.
The mark [3] stands for this setting: Staphylococcus aureus strain 1756, read-out: MIC.
The mark [4] stands for this setting: Enterococcus faecalis, 20 h, Enterococcus faecalis strain 9790, 37° C., approx. 20 hours, read-out: MIC.
The mark [5] stands for this setting: Staphylococcus aureus, 20 h, Staphylococcus aureus strain 133.
The mark [6] stands for this setting: Enterococcus faecalis, 20 h, Enterococcus faecalis strain 27101, 37° C., approx. 20 hours.
The mark [7] stands for this setting: Enterococcus faecalis, 20 h, Enterococcus faecalis strain 9790, 37° C., approx. 20 hours.
Where [8] appears, read: Enterococcus faecalis, 20 h, Enterococcus faecalis strain 27101, 37° C., approx. 20 hours, read-out: MIC.
The mark [9] stands for this setting: Morganella morg. strain 932, 37° C., approx. 20 hours, read-out: MIC.
Where [10] appears, read: Klebsiella sp. strain 8085, 37° C., approx. 20 hours, read-out: MIC.
[11] abbreviates: Providencia spp. strain 12012, 37° C., approx. 20 hours, read-out: MIC.

Values after ≈ are worked out from the molar mass of the structure shown. Where two headings read alike, the source gives them in different places.

As usually defined, the MIC is the least concentration at which growth counts as inhibited. Turning to `Cl.O=C(O)c1cn(C2CC2)c2c(F)c(N3Cc4cccnc4C3)c(F)cc2c1=O` [Example 1B, 1-cyclopropyl-7-(5,7-dihydro-6H-pyrrolo[3,4-b]pyridin-6-yl)-6,8-difluoro-1,4-dihydro-4-oxo-3-quinolinecarboxylic acid hydrochloride], the MIC with Pseudomonas aeruginosa (setting [1]) was 4 µg/mL; against Staphylococcus aureus (setting [2]), 0.02 µg/mL; with Staphylococcus aureus (setting [3]), 0.02 µg/mL; in the assay with Enterococcus faecalis (Enterococcus faecalis strain 27101, 37° C., approx. 20 hours, read-out: MIC), 0.01 µg/mL; in the assay on Enterococcus faecalis (setting [4]), 0.06 µg/mL; against E. coli (E. coli strain 455/7), 8 µg/mL. Moreover, the MIC against Klebsiella sp. (Klebsiella, 20 h) stood at 0.25 µg/mL; in the assay on Providencia spp. (Providencia, 20 h) it was 0.25 µg/mL.

`O=C(O)c1cn(C2CC2)c2c(F)c(N3Cc4ccncc4C3)c(F)cc2c1=O` [Example 2, 1-cyclopropyl-7-(2,3-dihydro-1H-pyrrolo[3,4-c]pyridin-2-yl)-6,8-difluoro-1,4-dihydro-4-oxo-3-quinolinecarboxylic acid]: the MIC in the assay with Pseudomonas aeruginosa (Pseudomonas aeruginosa, 20 h) stood at 1 µg/mL (≈ 2.61 µM); with Staphylococcus aureus (setting [3]), 0.06 µg/mL (≈ 0.157 µM); against Staphylococcus aureus (setting [5]), 0.25 µg/mL (≈ 0.652 µM); in the assay on Enterococcus faecalis (setting [6]) it was 0.25 µg/mL (≈ 0.652 µM); against E. coli (E. coli strain 455/7), 8 µg/mL (≈ 20.9 µM); in the assay with E. coli (E. coli strain Neumann), 0.06 µg/mL (≈ 0.157 µM). Further, the MIC with Providencia spp. (Providencia, 20 h) came out at 0.25 µg/mL (≈ 0.652 µM).

In the case of `O=C(O)c1cn(C2CC2)c2nc(N3Cc4cccnc4C3)c(F)cc2c1=O` [Example 3], the MIC in the assay on Pseudomonas aeruginosa (Pseudomonas aeruginosa, 20 h) is 2 µg/mL (≈ 5.46 µM); with Staphylococcus aureus (setting [5]), 0.25 µg/mL (≈ 0.682 µM); in the assay with Staphylococcus aureus (Staphylococcus aureus, 20 h, Staphylococcus aureus strain 1756), 0.25 µg/mL (≈ 0.682 µM); against Enterococcus faecalis (Enterococcus faecalis, 20 h), 0.5 µg/mL (≈ 1.36 µM); with Enterococcus faecalis (setting [7]) it was 0.5 µg/mL (≈ 1.36 µM); in the assay with E. coli (E. coli strain 455/7), 128 µg/mL (≈ 349 µM). In addition, the MIC came out at 0.25 µg/mL (≈ 0.682 µM) in the assay on Morganella morg. (Morganella, 20 h); 0.5 µg/mL (≈ 1.36 µM) in the assay with Klebsiella sp. (Klebsiella, 20 h); 0.5 µg/mL (≈ 1.36 µM) in the assay on Providencia spp. (Providencia, 20 h).

On to `O=C(O)c1cn(C2CC2)c2cc(N3Cc4ccncc4C3)c(F)cc2c1=O` [Example 4, 1-cyclopropyl-7-(2,3-dihydro-1H-pyrrolo[3,4-c]pyridin-2-yl)-6-fluoro-1,4-dihydro-4-oxo-3-quinolinecarboxylic acid], for which the MIC in the assay with Pseudomonas aeruginosa (setting [1]) was 4 µg/mL (≈ 10.9 µM); in the assay on Staphylococcus aureus (setting [2]), 0.06 µg/mL (≈ 0.164 µM); with Staphylococcus aureus (setting [3]), 0.06 µg/mL (≈ 0.164 µM); in the assay with Enterococcus faecalis (setting [4]), 0.25 µg/mL (≈ 0.684 µM); in the assay on Enterococcus faecalis (setting [8]), 0.25 µg/mL (≈ 0.684 µM); against E. coli (E. coli strain 455/7), 128 µg/mL (≈ 350 µM). Further, the MIC against E. coli (E. coli strain Neumann) was found to be 0.06 µg/mL (≈ 0.164 µM); in the assay on Morganella morg. (setting [9]), 0.5 µg/mL (≈ 1.37 µM); with Klebsiella sp. (setting [10]), 0.25 µg/mL (≈ 0.684 µM); with Providencia spp. (setting [11]) it was 0.5 µg/mL (≈ 1.37 µM).

Turning to `O=C(O)c1cn(C2CC2)c2cc(N3Cc4cccnc4C3)c(F)cc2c1=O` [Example 5, 1-cyclopropyl-7-(5,7-dihydro-6H-pyrrolo[3,4-b]-pyridin-6-yl)-6-fluoro-1,4-dihydro-4-oxo-3-quinolinecarboxylic acid], the MIC in the assay on Pseudomonas aeruginosa (setting [1]) was 128 µg/mL (≈ 350 µM); in the assay on Staphylococcus aureus (setting [2]), 0.13 µg/mL (≈ 0.356 µM); in the assay with Staphylococcus aureus (setting [3]) it was 0.13 µg/mL (≈ 0.356 µM); with Enterococcus faecalis (setting [4]), 0.25 µg/mL (≈ 0.684 µM); in the assay with Enterococcus faecalis (setting [8]) it was 0.25 µg/mL (≈ 0.684 µM); against E. coli (E. coli strain 455/7), 128 µg/mL (≈ 350 µM). Further, the MIC with E. coli (E. coli strain Neumann) is 0.13 µg/mL (≈ 0.356 µM); in the assay with Morganella morg. (setting [9]), 0.13 µg/mL (≈ 0.356 µM); with Klebsiella sp. (Klebsiella, 20 h) it was 1 µg/mL (≈ 2.74 µM); in the assay on Providencia spp. (setting [11]), 0.5 µg/mL (≈ 1.37 µM).

As for `O=C(O)c1cn(C2CC2)c2nc(N3Cc4ccncc4C3)c(F)cc2c1=O` [Example 6, 1-cyclopropyl-7-(2,3-dihydro-1H-pyrrolo[3,4-c]pyridin-2-yl]-6-fluoro-1,4-dihydro-4-oxo-1,8-naphthyridine-3-carboxylic acid], the MIC is 16 µg/mL (≈ 43.7 µM) in the assay on Pseudomonas aeruginosa (setting [1]); 0.25 µg/mL (≈ 0.682 µM) against Staphylococcus aureus (setting [2]); 0.25 µg/mL (≈ 0.682 µM) with Staphylococcus aureus (setting [3]); 0.5 µg/mL (≈ 1.36 µM) in the assay with Enterococcus faecalis (Enterococcus faecalis, 20 h); 0.5 µg/mL (≈ 1.36 µM) with Enterococcus faecalis (setting [7]); 128 µg/mL (≈ 349 µM) in the assay on E. coli (E. coli strain 455/7). Further, the MIC is 0.13 µg/mL (≈ 0.355 µM) in the assay on E. coli (E. coli strain Neumann); 0.25 µg/mL (≈ 0.682 µM) in the assay with Morganella morg. (setting [9]); 0.5 µg/mL (≈ 1.36 µM) in the assay on Klebsiella sp. (Klebsiella, 20 h); 1 µg/mL (≈ 2.73 µM) in the assay with Providencia spp. (setting [11]).

For the compound `CN1CCC2=C(C1)CN(c1c(F)cc3c(=O)c(C(=O)O)cn(C4CC4)c3c1F)C2.Cl` [Example 7B, 1-cyclopropyl-6,8-difluoro-1,4-dihydro-7-(5-methyl-2,3,4,5,6,7-hexahydro-1H-pyrrolo[3,4-c]-pyridin-2-yl)-4-oxo-3-quinolinecarboxylic acid hydrochloride], the MIC amounted to 1 µg/mL in the assay on Pseudomonas aeruginosa (Pseudomonas aeruginosa, 20 h); 0.06 µg/mL against Staphylococcus aureus (setting [2]); 0.06 µg/mL in the assay with Staphylococcus aureus (setting [3]); 2 µg/mL against E. coli (E. coli strain 455/7); 0.02 µg/mL against E. coli (E. coli strain Neumann); 0.03 µg/mL with Morganella morg. (setting [9]). Besides, in the assay on Klebsiella sp. (setting [10]), the MIC worked out at 0.06 µg/mL.

`CN1CCC2=C(C1)CN(c1c(F)cc3c(=O)c(C(=O)O)cn(C4CC4)c3c1Cl)C2` [Example 8, 8-chloro-1-cyclopropyl-6-fluoro-1,4-dihydro-7-(5-methyl-2,3,4,5,6,7-hexahydro-1H-pyrrolo[3,4-c]pyridin-2-yl)-4-oxo-3-quinolinecarboxylic acid]: the MIC against Pseudomonas aeruginosa (Pseudomonas aeruginosa, 20 h) was 0.5 µg/mL (≈ 1.2 µM); in the assay on Staphylococcus aureus (setting [2]), 0.03 µg/mL (≈ 0.0718 µM); with Staphylococcus aureus (setting [3]), 0.03 µg/mL (≈ 0.0718 µM); in the assay on Enterococcus faecalis (setting [4]), 0.06 µg/mL (≈ 0.144 µM); with Enterococcus faecalis (setting [8]) it was 0.06 µg/mL (≈ 0.144 µM); against E. coli (E. coli strain 455/7), 1 µg/mL (≈ 2.39 µM). The MIC against E. coli (E. coli strain Neumann) came to 0.03 µg/mL (≈ 0.0718 µM); in the assay on Morganella morg. (setting [9]), 0.06 µg/mL (≈ 0.144 µM); in the assay with Klebsiella sp. (setting [10]) it was 0.06 µg/mL (≈ 0.144 µM); with Providencia spp. (setting [11]), 0.13 µg/mL (≈ 0.311 µM).

Regarding `Cc1c(F)c(N2CC3=C(CN(C)CC3)C2)cc2c1c(=O)c(C(=O)O)cn2-c1ccc(F)cc1F` [Example 9, 1-(2,4-difluorophenyl)-6-fluoro-1,4-dihydro-5-methyl-7-(5-methyl-2,3,4,5,6,7-hexahydro-1H-pyrrolo[3,4-c]-pyridin-2-yl)-4-oxo-3-quinolinecarboxylic acid], the MIC amounted to 128 µg/mL (≈ 273 µM) in the assay on Pseudomonas aeruginosa (setting [1]); 0.06 µg/mL (≈ 0.128 µM) against Staphylococcus aureus (setting [2]); 0.06 µg/mL (≈ 0.128 µM) with Staphylococcus aureus (setting [3]); 0.5 µg/mL (≈ 1.07 µM) with Enterococcus faecalis (Enterococcus faecalis, 20 h); 0.5 µg/mL (≈ 1.07 µM) with Enterococcus faecalis (setting [7]); 128 µg/mL (≈ 273 µM) in the assay on E. coli (E. coli strain 455/7). Also, the MIC in the assay with E. coli (E. coli strain Neumann) was found to be 0.25 µg/mL (≈ 0.533 µM); with Morganella morg. (Morganella, 20 h) it was 0.5 µg/mL (≈ 1.07 µM); against Klebsiella sp. (Klebsiella, 20 h), 0.5 µg/mL (≈ 1.07 µM); in the assay with Providencia spp. (Providencia, 20 h) it was 0.5 µg/mL (≈ 1.07 µM).

For the compound `Nc1cccc2c1CN(c1c(F)cc3c(=O)c(C(=O)O)cn(C4CC4)c3c1F)C2` [Ref., 7-(4-amino-1,3-dihydro-isoindol-2-yl)-1-cyclopropyl-6,8-difluoro-1,4-dihydro-4-oxo-3-quinolinecarboxylic acid, reference compound], the MIC in the assay on Pseudomonas aeruginosa (setting [1]) worked out at 128 µg/mL (≈ 322 µM); in the assay with Staphylococcus aureus (setting [2]), 0.03 µg/mL (≈ 0.0755 µM); in the assay on Staphylococcus aureus (setting [3]) it was 0.03 µg/mL (≈ 0.0755 µM); against Enterococcus faecalis (setting [7]), 1 µg/mL (≈ 2.52 µM); in the assay with Enterococcus faecalis (setting [6]), 0.5 µg/mL (≈ 1.26 µM); against E. coli (E. coli strain 455/7) it was 128 µg/mL (≈ 322 µM). Besides, the MIC in the assay on E. coli (E. coli strain Neumann) amounted to 0.5 µg/mL (≈ 1.26 µM); in the assay on Morganella morg. (Morganella, 20 h) it was 1 µg/mL (≈ 2.52 µM); in the assay on Klebsiella sp. (setting [10]), 4 µg/mL (≈ 10.1 µM); in the assay with Providencia spp. (Providencia, 20 h), 1 µg/mL (≈ 2.52 µM).
